Structures can show the parent of a compound that is named as a salt.
Tests used:
[1] = system: ISC-enriched organoids; test: Primary screen, 384-well 2.5-D organoid differentiation (ENR+CD, 6 days, Target Selective Inhibitor Library, vs whole-plate median): ATP (CellTiter-Glo 3D, CTG); settings: for Dose.FC.CTG: ENR+CD, 6 days, FC vs plate median; for Z.CTG: standard z score of FC
[2] = system: ISC-enriched organoids; test: Primary screen, 384-well 2.5-D organoid differentiation (ENR+CD, 6 days): carbachol-induced lysozyme secretion (LYZ.S); type: cell-based, murine; settings: ENR+CD, 6 days, FC vs plate median
From the text: (§1) High-throughput screening.

[3] = system: ISC-enriched organoids; test: Primary screen, 384-well 2.5-D organoid differentiation (ENR+CD, 6 days): basal lysozyme secretion (LYZ.NS); type: cell-based, murine; settings: for Dose.FC.LYZ.NS: ENR+CD, 6 days, FC vs plate median; for Z.LYZ.NS: standard z score of FC
From the text: as §1

Row | SMILES | Dose.FC.CTG ([1]; Dose 0.08 uM) [log 2 fold change] | Z.CTG ([1]; Dose 0.08 uM) | Dose.FC.CTG ([1]; Dose 0.40 uM) [log 2 fold change] | Z.CTG ([1]; Dose 0.40 uM) | Dose.FC.CTG ([1]; Dose 2.00 uM) [log 2 fold change] | Z.CTG ([1]; Dose 2.00 uM) | Dose.FC.CTG ([1]; Dose 10.00 uM) [log 2 fold change] | Z.CTG ([1]; Dose 10.00 uM) | Dose.FC.LYZ.S ([2]; Dose 0.08 uM) [log 2 fold change] | Dose.FC.LYZ.S ([2]; Dose 0.40 uM) [log 2 fold change] | Dose.FC.LYZ.S ([2]; Dose 2.00 uM) [log 2 fold change] | Dose.FC.LYZ.S ([2]; Dose 10.00 uM) [log 2 fold change] | Dose.FC.LYZ.NS ([3]; Dose 0.08 uM) [log 2 fold change] | Z.LYZ.NS ([3]; Dose 0.08 uM) | Dose.FC.LYZ.NS ([3]; Dose 0.40 uM) [log 2 fold change] | Z.LYZ.NS ([3]; Dose 0.40 uM) | Dose.FC.LYZ.NS ([3]; Dose 2.00 uM) [log 2 fold change] | Z.LYZ.NS ([3]; Dose 2.00 uM) | Dose.FC.LYZ.NS ([3]; Dose 10.00 uM) [log 2 fold change] | Z.LYZ.NS ([3]; Dose 10.00 uM)
1 | c1ccc(CNc2nc(NCc3ccccc3)c3ccccc3n2)cc1 [DBeQ] | 0.119 | 0.285 | −0.013 | −0.031 | 0.004 | 0.010 | −1.133 | −2.706 | 0.045 | 0.210 | −0.103 | −0.423 | 0.097 | 0.844 | 0.064 | 0.558 | −0.048 | −0.414 | −0.296 | −2.577
2 | CNC(=O)c1cc(Oc2ccc(NC(=O)Nc3cc(C(C)(C)C)nn3-c3ccc4ncccc4c3)c(F)c2)ccn1 [DCC-2036 (Rebastinib)] | 0.216 | 0.516 | 0.218 | 0.520 | −0.038 | −0.091 | −0.322 | −0.769 | 0.358 | 0.186 | 0.054 | −0.244 | 0.259 | 2.256 | 0.128 | 1.116 | 0.073 | 0.637 | −0.209 | −1.823
3 | CC(C)Oc1ccc(-c2cnc3c(-c4ccnc5ccccc45)cnn3c2)cc1 [DMH1] | −0.031 | −0.075 | −0.079 | −0.188 | −0.002 | −0.004 | −0.001 | −0.003 | 0.078 | 0.054 | 0.035 | −0.092 | 0.018 | 0.155 | 0.026 | 0.231 | 0.014 | 0.124 | −0.075 | −0.657
4 | Cc1ccc2c(=O)c3cccc(CC(=O)O)c3oc2c1C [DMXAA (Vadimezan)] | −0.568 | −1.357 | −0.629 | −1.502 | −0.477 | −1.139 | −0.230 | −0.550 | −0.091 | −0.009 | −0.094 | −0.118 | −0.007 | −0.065 | −0.036 | −0.317 | −0.038 | −0.334 | −0.031 | −0.271
5 | CC(C)(C)c1nc(-c2cccc(NS(=O)(=O)c3c(F)cccc3F)c2F)c(-c2ccnc(N)n2)s1 [Dabrafenib (GSK2118436)] | −0.134 | −0.320 | 0.011 | 0.026 | −0.279 | −0.667 | −0.800 | −1.911 | 0.236 | 0.103 | 0.019 | −0.384 | 0.095 | 0.830 | 0.049 | 0.427 | −0.001 | −0.006 | −0.250 | −2.178
6 | CCC(CC)CC1(C(=O)Nc2ccccc2SC(=O)C(C)C)CCCCC1 [Dalcetrapib (JTT-705, RO4607381)] | 0.112 | 0.268 | −0.006 | −0.014 | 0.079 | 0.188 | 0.136 | 0.324 | 0.049 | 0.104 | 0.098 | −0.113 | 0.055 | 0.475 | −0.037 | −0.324 | −0.034 | −0.296 | −0.074 | −0.643
7 | COc1cccc2c1C(=O)c1c(O)c3c(c(O)c1C2=O)C[C@@](O)(C(C)=O)C[C@@H]3O[C@H]1C[C@H](N)[C@H](O)[C@H](C)O1 [Daunorubicin HCl] | −0.467 | −1.115 | −0.601 | −1.436 | −0.817 | −1.950 | −1.100 | −2.628 | −0.096 | −0.329 | −0.343 | −0.374 | −0.136 | −1.188 | −0.241 | −2.099 | −0.262 | −2.280 | −0.260 | −2.262
8 | C[C@]12C=CC(=O)N[C@@H]1CC[C@@H]1[C@@H]2CC[C@]2(C)[C@@H](C(=O)Nc3cc(C(F)(F)F)ccc3C(F)(F)F)CC[C@@H]12 [Dutasteride] | 0.057 | 0.137 | −0.266 | −0.636 | −0.098 | −0.234 | −0.057 | −0.137 | 0.001 | −0.054 | −0.074 | −0.151 | 0.065 | 0.568 | 0.006 | 0.052 | −0.105 | −0.915 | −0.092 | −0.799
9 | CCn1c2ccccc2c2cc(Nc3ccnc(NCCCN4CCOCC4)n3)ccc21 [EHop-016] | 0.081 | 0.193 | 0.062 | 0.147 | 0.088 | 0.211 | −0.757 | −1.808 | 0.091 | 0.012 | −0.011 | −0.299 | 0.177 | 1.537 | 0.035 | 0.302 | 0.029 | 0.252 | −0.203 | −1.769
10 | COc1cccc(C=NCCN=Cc2cccc(OC)c2[O-])c1[O-].[Cl-].[Mn+3] [EUK 134] | −0.015 | −0.035 | −0.162 | −0.387 | 0.091 | 0.217 | −0.024 | −0.057 | 0.025 | 0.057 | −0.034 | −0.132 | 0.068 | 0.594 | 0.003 | 0.026 | 0.028 | 0.247 | −0.085 | −0.741

Source: patent publication US20230398130A1, “METHODS AND COMPOSITIONS FOR DIFFERENTIATING STEM CELLS” (Massachusetts Institute of Technology, priority 2020, published 2023)
